The subject of assay [1] is Ramos cells. The assay can be described thus: Cell cycle analysis (BrdU / 7-AAD), Ramos. Format: cell-based. The conditions noted are these: for Cell cycle distribution / progression: Ramos; for BrdU incorporation into DNA: comparison treatments. As to the method: Methods: […] Thirty minutes prior to harvest, cultures were treated with 5-bromo-2′-deoxyuridine (BrdU) at a final concentration of 10 μM. Cells were isolated by centrifugation, washing once with 0.5% BSA in PBS, and the resulting cell pellets fixed using 0.5 mL Cytofix/Cytoperm reagent (BD Biosciences). […] Cells were stained using a fluorescein-conjugated anti-BrdU antibody (clone PRB1, E-Bioscience, San Diego, Calif.) and 7-AAD. Cell cycle occupancy was analyzed by flow cytometry using fluorescein signal as a measure of DNA synthesis and 7-AAD signal as a measure of DNA content. […] L. Shepherd & Assoc., San Fernando, Calif.).
(Incorporation of labelled thymidine or its analogues reports DNA synthesis.)

Another assay relates to Thioredoxin reductase. The assay can be described thus: Lipoate reduction (thioredoxin reductase activity) in intact A549 cells. Format: cell-based, human. The conditions noted are these: A549; actinomycin D 2.5 μg/mL or cycloheximide 10 μg/mL 1 hour prior, BSO 100 μM 24 hours prior. As to the method: Methods: Lipoate Reduction. Thioredoxin reductase activity was assessed by measuring the rate of lipoate reduction. In brief, A549 or PC3 cells (10,000 cells/well) were plated on 96-well plates and allowed to adhere overnight and grow two additional days until confluent. Cells were treated with MGd, zinc, or 5% mannitol for 2-4 hours, as indicated. Medium was removed, cells were washed with Hanks Balanced Salt Solution (HBSS), and a solution of 5 mM lipoic acid and 1 mM 5,5′-dithiobis(2-nitrobenzoic acid) in HBSS (100 μL/well) was added. Plates were incubated at ambient temperature in the dark. At chosen time intervals, plate absorbance was measured at 405-650 nm. Plate absorbances were normalized to wells containing neither exogenous zinc nor texaphyrin complex to allow plate-to-plate comparison. In some experiments, L-buthionine-[S,R]-sulfoximine (BSO, 100 μM) was added 24 hours prior to MGd or zinc treatment, to inhibit any contribution to lipoate reduction made by glutathione-dependent pathways (28). Actinomycin D (2.5 μg/mL) or cycloheximide (10 μg/mL), where present, was added 1 hour prior to texaphyrin or zinc treatment. Viability was checked on parallel plates using the tetrazolium dye 3-(4,5-dimethylthiazol-2-yl)-5-(3-carboxymethoxyphenyl)-2-(4-sulfophenyl)-2H-tetrazolium (MTS) following the manufacturers protocol (Promega Corp.).

In the next assay the test system is A549 cells. The assay can be described thus: Cell viability by propidium iodide exclusion, A549. The conditions noted are these: A549, 24 hours; Zn(OAc)2 100 μM, CdCl2 50 μM, MGd 50 μM.
The subject of assay [2] is metallothionein gene family members and ZnT1. The assay can be described thus: Northern blot analysis, A549 cultures. In kind it is cell-based, human. The conditions noted are these: for Metallothionein transcript levels: A549, 24 hours, 50 μM MGd, Zn(OAc)2 100 μM, CdCl2 50 μM, FIG. 2B. Here is the method:
Methods: Northern Blot Analysis—Plateau phase cultures of A549 cells were prepared as described above, except that T-25 flasks were used, and the number of cells initially plated scaled accordingly. Cultures were treated with 50 μM MGd, 5 μM Gd(OAc)3 or 5% mannitol for 4 hours, whereupon cultures were washed twice with PBS and RNA harvested as above. Alternatively, 7-day plateau phase A549 or PC3 cultures were treated with 50 μM MGd, 50-100 μM Zn(OAc)2, 50 μM CdCl2 or 5% mannitol for 24 hours (A549) or 4 hours (PC3) prior to washing and RNA analysis. Exponential phase Ramos cultures were treated for 6 hours. Northern blots were conducted and analyzed. Radio labeled metallothionein probe, designed to bind to a 113-bp region of 3′-UTR sequences from multiple metallothionein gene family members, was generated using 5′-[…]-3′ (forward) and 5′-[…]-3′ (reverse) PCR primers and the NEBlot kit (New England Biolabs, Inc.). Radio labeled ZnT1 probe was generated in a similar fashion using 5′-[…]-3′ (forward) and 5′-[…]-3′ (reverse) primers.

In another assay the test system is HIF-1α. The assay can be described thus: HIF-1α sandwich ELISA, Ramos. In kind it is cell-based. The note with it: four hours. As to the method: Methods: Total HIF-1α protein was detected by sandwich ELISA using the DuoSet IC™ HIF-1α ELISA kit obtained from R&D Systems (Minneapolis, Minn.). All incubations were carried out at ambient temperature. Briefly, 96-well plates were coated with HIF-1α capture antibody overnight prior to blocking with 5% BSA in wash buffer. Protein lysates (50 μg protein per well prepared according to the manufacturer's instructions) were added for 2 hours, whereupon plates were washed and a biotinylated detection antibody specific for HIF-1α was added. A streptavidin-horseradish peroxidase format was used for detection. The optical density at 450 minus […] was measured using a microplate reader (SpectraMax Plus, Molecular Devices, Palo Alto, Calif.). HIF-1α concentrations were calculated by linear regression using a standard curve prepared from HIF-1α standard supplied with the ELISA kit.
(An ELISA detects its analyte on a solid surface through an enzyme-linked reagent.)

The subject of assay [3] is Ramos cells. The assay can be described thus: Intracellular free zinc (FluoZin-3 fluorescence), Ramos. Format: cell-based. The conditions noted are these: hydrogen peroxide treatment. As to the method: Methods: Intracellular Free Zinc. The concentration of intracellular free zinc was assessed using the ion-specific fluorescent probe, FluoZin-3-AM™ (FluoZin-3, Molecular Probes, Inc.). […] Following treatment, cells were isolated by centrifugation. Cell pellets were washed and re-suspended in a solution of 0.5% BSA in PBS.

Assay [4] relates to Ramos cells. The assay can be described thus: Reactive oxygen species (DCFA to DCF), Ramos. In kind it is cell-based. The note with it: single agents. As to the method:
Methods: Reactive oxygen species were measured in live cells as intracellular peroxides by monitoring the oxidation of 2′,7′-dichlorofluorescin-diacetate (DCFA) to 2′,7′-dichlorofluorescein (DCF) (Molecular Probes). Cells (1×10^6 per mL) were incubated in a solution of 1 μg per mL DCFA in 0.5% BSA in HBSS for 15 minutes at 37° C. Two mL additional 0.5% BSA in HBSS was added, cells were isolated by centrifugation, and the pellet re-suspended in a solution of 50 μg/mL 7-aminoactinomycin D (7-AAD) in 0.5% BSA in HBSS. Cell suspensions were incubated at ambient temperature for 2 to 3 minutes, and stored on ice until analysis. The fluorescent intensity in live (i.e., 7-AAD impermeable) cells was analyzed by flow cytometry.

Entries after “also recorded” stand apart in the source; their conditions may differ. Starred links: 1 amine or outer side, 2 acyl side, 3 side chain; linkers in the order of their positions; H or OH if unused. Positions of bridges follow the written chain, without caps; N, C: chain ends. Non-standard residues stand in square brackets, D forms with d. Residues, ends and D or L forms follow the SMILES beside them. Chains are numbered I, II in the order given. Actinocin(9to1) = Cc1c2oc3c(C)ccc(C(=O)[*:1])c3nc-2c(C(=O)[*:2])c(N)c1=O; NMeV = CN[C@H](C(=O)O)C(C)C; Sar = CNCC(=O)O

Consider `O=c1[nH]c(=O)n([C@H]2C[C@H](O)[C@@H](CO)O2)cc1F` [5-fluoro-2′-deoxyuridine], for which, in the assay with Ramos cells [1], the “Cell cycle distribution / progression” value is on record as “accumulation of cells in G1/S” and the “BrdU incorporation into DNA” value is “permitted BrdU incorporation into DNA”.

On to `CCCCS(=N)(=O)CCC(N)C(=O)O` [BSO, L-buthionine-[S,R]-sulfoximine, reference compound], for which the “Effect of pre-treatment on the inhibition of lipoate reduction by MGd and zinc” value with Thioredoxin reductase is recorded as “increased the degree of inhibition”.

As for `[Cl][Cd][Cl]` [CdCl2, reference compound], the “Cellular viability (propidium iodide exclusion)” value in the assay on A549 cells is given as “ca. 53%”. In addition, the Metallothionein transcript levels result in assay [2] is given as “significant increase”; in assay [2] (listed as cadmium), “raised; also recorded: high levels of metallothionein transcription”.

Regarding `CC(=O)[O-].CC(=O)[O-].CC(=O)[O-].[Gd+3]` [Gd(OAc)3, gadolinium acetate, reference compound], in assay [2] (A549 plateau phase, 4 hours, 50 μM MGd or 5 μM Gd(OAc)3), the “Induction of metallothionein gene family members and ZnT1 (Northern blot)” value is “induced only in cultures treated with MGd”.

With `Cc1c2oc3c(C)ccc(C(=O)N[C@@H]4C(=O)N[C@H](C(C)C)C(=O)N5CCC[C@H]5C(=O)N(C)CC(=O)N(C)[C@@H](C(C)C)C(=O)O[C@@H]4C)c3nc-2c(C(=O)N[C@@H]2C(=O)N[C@H](C(C)C)C(=O)N3CCC[C@H]3C(=O)N(C)CC(=O)N(C)[C@@H](C(C)C)C(=O)O[C@@H]2C)c(N)c1=O` [actinomycin D, reference compound] (I: T[dV]P[Sar][NMeV] / II: T[dV]P[Sar][NMeV]; ester I:1-I:C, II:1-II:C; linker I:N-II:N via Actinocin(9to1)), the “Effect of pre-treatment on the inhibition of lipoate reduction by MGd and zinc” value in the assay on Thioredoxin reductase is listed as “restored the inhibitory effect”.

On to `CC(=O)[O-].CC(=O)[O-].[Co+2]` [cobalt acetate], for which the “Increase in total cellular HIF-1α levels” value with HIF-1α is listed as “increased”.

`C[C@@H]1C[C@@H]([C@H](O)CC2CC(=O)NC(=O)C2)C(=O)[C@@H](C)C1` [cycloheximide, reference compound]: the “Effect of pre-treatment on the inhibition of lipoate reduction by MGd and zinc” value in the assay on Thioredoxin reductase was “restored the inhibitory effect”.

As to `OO` [hydrogen peroxide, reference compound], the FluoZin-3 fluorescence entry in the assay with Ramos cells [3] is on record as “increased”. For the same compound, the DCF signal entry with Ramos cells [4] was “increased”.

Regarding `NC(=O)NO` [hydroxyurea], in the assay on Ramos cells [1], the “Cell cycle distribution / progression” value was “allowed passage through G2M” and the “BrdU incorporation into DNA” value is listed as “inhibited BrdU incorporation”.
